Here are results for 29 molecules from patent US10172832B2, “Amide derivatives of N-urea substituted amino acids as formyl peptide receptor like-1 (FPRL-1) receptor modulators” (Allergan, Inc., priority 2011, dated 2019).

This experiment deals with T1, FPRL-1 (Homo sapiens, UniProt P25090).
T1 construct: expressed in transfected cells
T1 sequence (P25090 1-351): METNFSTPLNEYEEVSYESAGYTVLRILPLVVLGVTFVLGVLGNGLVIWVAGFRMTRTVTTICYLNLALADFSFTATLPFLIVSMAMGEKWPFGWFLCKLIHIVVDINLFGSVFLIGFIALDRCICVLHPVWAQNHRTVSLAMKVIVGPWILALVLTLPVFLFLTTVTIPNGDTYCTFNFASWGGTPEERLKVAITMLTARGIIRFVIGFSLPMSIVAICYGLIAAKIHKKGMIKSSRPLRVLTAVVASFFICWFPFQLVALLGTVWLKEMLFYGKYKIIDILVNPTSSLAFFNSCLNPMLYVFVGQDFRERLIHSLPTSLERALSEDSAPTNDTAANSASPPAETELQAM
Put plainly: compound-induced calcium activity on FLIPR Tetra in CHO-Gα16 cells stably expressing FPRL1. It is filed as cell-based. Particulars: for FPRL-1 Ga16-CHO (Rel. eff.): relative efficacy; for EC50: tested 0.61 to 10,000 nM, read-out: FPRL-1 Ga16-CHO EC50. Here is the method: CHO-Gα16 cells stably expressing FPRL1 were cultured in (F12, 10% FBS, 1% PSA, 400 μg/ml geneticin and 50 μg/ml hygromycin) and HEK-Gqi5 cells stable expressing FPR1 were cultured in (DMEM high glucose, 10% FBS, 1% PSA, 400 μg/ml geneticin and 50 μg/ml hygromycin). In general, the day before the experiment, 18,000 cells/well were plated in a 384-well clear bottom poly-d-lysine coated plate. The following day the screening compound-induced calcium activity was assayed on the FLIPR^Tetra. The drug plates were prepared in 384-well microplates using the EP3 and the MultiPROBE robotic liquid handling systems. Compounds were tested at concentrations ranging from 0.61 to 10,000 nM. Results are expressed as EC50 (nM) and efficacy values.

In general, EC50 refers to the concentration that produces a half-maximal response. As for `CC[C@H](C)[C@H](NC(=O)Nc1ccc(Br)cc1)C(=O)NCC(N)=O` [Compound 28, (2S,3S)—N-(2-amino-2-oxoethyl)-2-{[(4-bromophenyl)carbamoyl]amino}-3-methylpentanamide], the “FPRL-1 Ga16-CHO (Rel. eff.)” value was “(0.81)” and the half-maximal effective concentration (EC50) was found to be 4.6 nM.
Turning to `CC(C)C[C@H](NC(=O)Nc1ccc(Br)cc1)C(=O)NCC(O)CO` (stereo partly drawn) [Compound 47, (2S)-2-{[(4-bromophenyl)carbamoyl]amino}-N-(2,3-dihydroxypropyl)-4-methylpentanamide], the 50% effective concentration (EC50) turned out to be 5.1 nM.
For `CC[C@H](C)[C@H](NC(=O)Nc1ccc(Br)cc1F)C(=O)NCC(C)=O` [Compound 13, (2S,3S)-2-{[(4-bromo-2-fluorophenyl)carbamoyl]amino}-3-methyl-N-(2-oxopropyl)pentanamide], the “FPRL-1 Ga16-CHO (Rel. eff.)” value was “(1.01)” and the EC50 worked out at 36 nM.
Take `CCC[C@H](NC(=O)Nc1ccc(Br)cc1)C(=O)NCC(C)=O` [(2S)-2-{[(4-bromophenyl)carbamoyl]amino}-N-(2-oxopropyl)pentanamide]: the “FPRL-1 Ga16-CHO (Rel. eff.)” value is “(1.05)” and the EC50 turned out to be 35 nM.
Turning to `O=C(O)CNC(=O)C(Cc1c[nH]c2ccccc12)NC(=O)Nc1ccc(Br)cc1` (centres unmarked) [{[2-{[(4-bromophenyl)carbamoyl]amino}-3-(1H-indol-3-yl)propanoyl]amino}acetic acid], the “FPRL-1 Ga16-CHO (Rel. eff.)” value was “(0.97)” and the EC50 is 0.73 nM.
For the molecule `CC(C)(C)OC(=O)CCNC(=O)[C@H](Cc1ccccc1)NC(=O)Nc1ccc(Br)cc1` [Compound 8, tert-butyl 3-{[(2S)-2-{[(4-bromophenyl)carbamoyl]amino}-3-phenylpropanoyl]amino}propanoate], the “FPRL-1 Ga16-CHO (Rel. eff.)” value was “(1.00)” and the EC50 was determined as 255 nM.
On to `CC(C)(C)OC(=O)CNC(=O)[C@H](Cc1ccccc1)NC(=O)Nc1ccc(Br)cc1` [Compound 7, tert-Butyl {[(2S)-2-{[(4-bromophenyl)carbamoyl]amino}-3-phenylpropanoyl]amino}acetate], for which the “FPRL-1 Ga16-CHO (Rel. eff.)” value was “(0.91)” and the EC50 amounted to 118 nM.
The corresponding values for `CC(C)C[C@H](NC(=O)Nc1ccc(Br)cc1)C(=O)N[C@@H](C)C(N)=O` [Compound 45, (2S)-N-[(1S)-2-amino-1-methyl-2-oxoethyl]-2-{[(4-bromophenyl)carbamoyl]amino}-4-methylpentanamide] are “(0.96)” and 24 nM.
Regarding `CC[C@H](C)[C@H](NC(=O)Nc1ccc(Br)cc1F)C(=O)NCCO` [Compound 15, (2S,3S)-2-{[(4-bromo-2-fluorophenyl)carbamoyl]amino}-N-(2-hydroxyethyl)-3-methylpentanamide], the “FPRL-1 Ga16-CHO (Rel. eff.)” value is on record as “(1.00)” and the EC50 is 62 nM.
In the same order, the values of `CC(C)C[C@H](NC(=O)Nc1ccc(Br)cc1)C(=O)NC(C)(C)C(=O)OC(C)(C)C` [Compound 73, tert-butyl 2-{[(2S)-2-{[(4-bromophenyl)carbamoyl]amino}-4-methylpentanoyl]amino}-2-methylpropanoate] are “(1.16)” and 133 nM.
In the same order, the values of `CCC[C@H](NC(=O)Nc1ccc(Br)cc1)C(=O)NCC(=O)OC` [Compound 22, methyl {[(2S)-2-{[(4-bromophenyl)carbamoyl]amino}-pentanoyl]amino}acetate] are “(0.88)” and 17 nM.
As to `CC(C)CC(C)(NC(=O)Nc1ccc(Br)cc1)C(=O)NCC(=O)OC(C)(C)C` (centres unmarked) [Compound 55, tert-butyl {[2-{[(4-bromophenyl)carbamoyl]amino}-2,4-dimethylpentanoyl]amino}acetate], the “FPRL-1 Ga16-CHO (Rel. eff.)” value is “(0.98)” and the EC50 was 58 nM.
The corresponding values for `CC(C)C[C@H](NC(=O)Nc1ccc(Br)cc1)C(=O)N[C@H](C(=O)OC(C)(C)C)c1ccccc1` [Compound 50, tert-butyl(2S)-{[(2S)-2-{[(4-bromophenyl)carbamoyl]amino}-4-methylpentanoyl]amino}(phenyl)ethanoate] are “(1.02)” and 122 nM.
With `CC(C)C[C@H](NC(=O)Nc1ccc(Br)cc1)C(=O)N[C@H](C(N)=O)C(C)C` [Compound 46], the “FPRL-1 Ga16-CHO (Rel. eff.)” value was “(1.03)” and the EC50 was determined as 1.3 nM.
In the case of `O=C(O)CCNC(=O)[C@H](Cc1ccccc1)NC(=O)Nc1ccc(Br)cc1` [Compound 2, 3-{[(2S)-2-{[(4-bromophenyl)carbamoyl]amino}-3-phenylpropanoyl]amino}propanoic acid], the “FPRL-1 Ga16-CHO (Rel. eff.)” value is “(0.98)” and the EC50 is 18 nM.
As to `CC(C)C[C@H](NC(=O)Nc1ccc(Br)cc1)C(=O)N[C@H](C)CO` [Compound 48, (2S)-2-{[(4-bromophenyl)carbamoyl]amino}-N-[(1R)-2-hydroxy-1-methylethyl]-4-methylpentanamide], the EC50 was found to be 3 nM.
Turning to `CC(C)C[C@H](NC(=O)Nc1ccc(Br)cc1)C(=O)NCC(=O)N(C)C` [Compound 61, (2S)-2-{[(4-bromophenyl)carbamoyl]amino}-N-[2-(dimethylamino)-2-oxoethyl]-4-methylpentanamide], the “FPRL-1 Ga16-CHO (Rel. eff.)” value is on record as “(0.90)” and the EC50 was 1.4 nM.
As to `CC(=O)CNC(=O)[C@H](Cc1ccccc1)NC(=O)Nc1ccc(Br)cc1` [Compound 16, (2S)-2-{[(4-bromophenyl)carbamoyl]aminio}-N-(2-oxopropyl)-3-phenylpropanamide], the “FPRL-1 Ga16-CHO (Rel. eff.)” value is reported as “(0.96)” and the EC50 was 29 nM.
For `CSCC[C@H](NC(=O)Nc1ccc(Br)cc1)C(=O)NCC(=O)OC(C)(C)C` [Compound 80, tert-butyl {[(2S)-2-{[(4-bromophenyl)carbamoyl]amino}-4-(methylsulfanyl)butanoyl]amino}acetate], the “FPRL-1 Ga16-CHO (Rel. eff.)” value is listed as “(0.98)” and the EC50 turned out to be 127 nM.
As to `CCC[C@H](NC(=O)Nc1ccc(Br)cc1)C(=O)NCC(=O)OCC` [Compound 23, ethyl {[(2S)-2-{[(4-bromophenyl)carbamoyl]amino}-pentanoyl]amino}acetate], the “FPRL-1 Ga16-CHO (Rel. eff.)” value is “(1.18)” and the EC50 was found to be 57 nM.
With `CC(C)C[C@H](NC(=O)Nc1ccc(S(C)(=O)=O)cc1)C(=O)NCC(=O)OC(C)(C)C` [Compound 76, tert-butyl {[(2S)-4-methyl-2-({[4-(methylsulfonyl)phenyl]carbamoyl}amino)pentanoyl]amino}acetate], the “FPRL-1 Ga16-CHO (Rel. eff.)” value is recorded as “(0.90)” and the EC50 stood at 1080 nM.
In the same order, the values of `CC(C)C[C@@H](NC(=O)Nc1ccc(Br)cc1)C(=O)NC(C)(C)C(=O)OC(C)(C)C` [Compound 86, tert-butyl 2-{[(2R)-2-{[(4-bromophenyl)carbamoyl]amino}-4-methylpentanoyl]amino}-2-methylpropanoate] are “(0.74)” and 2730 nM.
Consider `CC(C)C[C@H](NC(=O)Nc1ccc(Br)cc1)C(=O)NC(C)(C)C(=O)O` [Compound 74, 2-{[(2S)-2-{[(4-bromophenyl)carbamoyl]amino}-4-methylpentanoyl]amino}-2-methylpropanoic acid], for which the “FPRL-1 Ga16-CHO (Rel. eff.)” value is listed as “(0.96)” and the EC50 was found to be 1 nM.
As for `CC(=O)CNC(=O)[C@H](CC(C)C)NC(=O)Nc1ccc(Br)cc1` [Compound 27, (2S)-2-{[(4-bromophenyl)carbamoyl]amino}-4-methyl-N-(2-oxopropyl)pentanamide], the “FPRL-1 Ga16-CHO (Rel. eff.)” value is “(0.82)” and the EC50 is 4.7 nM.
The corresponding values for `CC(C)C[C@H](NC(=O)Nc1ccc([S+](C)[O-])cc1)C(=O)NCC(=O)O` (stereo partly drawn) [Compound 77, {[(2S)-4-methyl-2-({[4-(methylsulfinyl)phenyl]carbamoyl}amino)pentanoyl]amino}acetic acid] are “(1.21)” and 358 nM.
For `CC[C@H](C)[C@H](NC(=O)Nc1ccc(Br)cc1)C(=O)NCC(=O)OC(C)(C)C` [Compound 11, tert-butyl{[(2S,3S)-2-{[(4-bromophenyl)carbamoyl]amino}-3-methylpentanoyl]amino}acetate], the “FPRL-1 Ga16-CHO (Rel. eff.)” value is “(0.85)” and the EC50 was found to be 280 nM.
In the case of `CC[C@@H](C)[C@@H](NC(=O)Nc1ccc(Br)cc1)C(=O)NCC(=O)OC(C)(C)C` [Compound 64, tert-butyl {[(2R,3R)-2-{[(4-bromophenyl)carbamoyl]amino}-3-methylpentanoyl]amino}acetate], the “FPRL-1 Ga16-CHO (Rel. eff.)” value is given as “(0.44)” and the EC50 was found to be 3970 nM.
The corresponding values for `CSCC[C@H](NC(=O)Nc1ccc(Br)cc1)C(=O)NCC(=O)O` [Compound 82, {[(2S)-2-{[(4-bromophenyl)carbamoyl]amino}-4-(methylsulfanyl)butanoyl]amino}acetic acid] are “(1.03)” and 7 nM.
In the case of `CC(C)C[C@@H](NC(=O)Nc1ccc(Br)cc1)C(=O)NC(C)(C)C(=O)O` [Compound 87, 2-{[(2R)-2-{[(4-bromophenyl)carbamoyl]amino}-4-methylpentanoyl]amino}-2-methylpropanoic acid], the “FPRL-1 Ga16-CHO (Rel. eff.)” value is reported as “(0.74)” and the concentration for a half-maximal effect (EC50) worked out at 490 nM.
